The text below walks through data of paper PMC10671052, “Naphthyl-Substituted Indole and Pyrrole Carboxylic Acids as Effective Antibiotic Potentiators—Inhibitors of Bacterial Cystathionine γ-Lyase” (International Journal of Molecular Sciences, 2023).

Series [1] can be described thus: LogD7.4, miniaturized shake flask method. Format: physicochemical. The note with it: 1-octanol / 100 mM sodium phosphate buffer, pH 7.4, 1-octanol / 100 mM sodium phosphate buffer pH 7.4; read-out: Measured logD7.4. The method, then: Coefficients of distribution between 1-octanol and 100 mM sodium phosphate buffer (pH 7.4) were determined by the miniaturized shake flask method. Namely, 5 μL of a 10 mM compound’s solution in DMSO was dissolved in 245 μL of 1-octanol saturated with phosphate buffer. Next, 500 μL of phosphate buffer saturated with 1-octanol was added, followed by mixing for 3 h. […] After that, 50 μL of the octanol phase (top layer) was aspirated and diluted with 500 μL of 1-octanol saturated with phosphate buffer. Then, the remaining octanol phase was removed; 50 μL of the buffer layer was aspirated and diluted with 500 μL of phosphate buffer saturated with 1-octanol. Both the octanol and phosphate buffer samples were analyzed by LC–MS/MS. The distribution coefficient was determined according to the following equation: logD7.4 = log10 (peak area for octanol sample/peak area for buffer sample). […] All compounds were tested in triplicate.

A short description of the next series: physchem. In kind it is physicochemical. The note with it: for solubility at 2 h: 25 °C, pH 7.4, aqueous buffer, kinetic from dmso stock. The method, then: A stock solution of a compound (10 mM in DMSO, 10 μL) was added to 990 μL of 100 mM sodium phosphate buffer (pH 7.4) and incubated at 25 °C for 2 h with constant shaking. The suspension was filtered through the PVDF membrane filter (Merck Millipore, Burlington, MA, USA). To 320 µL of the filtrate, 80 µL of acetonitrile was added and mixed. The mixture was transferred to a vial and analyzed by ultra-high-performance liquid chromatography (UHPLC) with UV detection. Concentrations were calculated from a 5-point calibration curve. The calibration range was 1 to 100 μM. The controls were diclofenac and nicardipine. All compounds were tested in triplicate.

The test system of the next series is S. aureus ATCC 25923. Nature of the series: MIC of antibiotics alone and with potentiators, broth microdilution. The note with it: S. aureus ATCC 25923, no potentiator.
Series [2] has as its system S. aureus INA00761 (MRSA). The description is as above. The note with it: no potentiator.
Procedure: (§3) Overnight (ON) culture of a specific strain was grown in the liquid Luria–Bertani nutrient medium (LB broth, BD Difco) for 18 h at 37 °C, with agitation at 180 rpm using an Innova 44R orbital shaker (Eppendorf, Hamburg, Germany). After a certain period, 50 µL of the ON culture was transferred into 5 mL of the LB medium and grown for 3 h at 37 °C with agitation. Growth in the liquid medium was assessed by means of turbidity of the suspension, measured using a Densi-La-Meter II densitometer (Erba Lachema s.r.o., Brno, Czech Republic). Then, the bacterial suspension was diluted to the concentration 10^6 cells/mL with sterile LB and used as a seed culture [38, 39].
(§4) For the assessment of MICs, 96-well microtiter plates were utilized at 200 µL of a medium per well. Each well was filled with 100 µL of the seed culture. After that, 10 µL of a solution of each tested synthetic compound (potentiators) was added into each experimental well. Finally, 90 µL of twofold serial dilutions of an antibiotic in a sterile LB was added into individual wells.
(§5) As a positive control, we set up wells with 100 µL of the bacterial culture and 100 µL of the sterile LB medium. […] Negative-control wells contained 200 µL of the sterile medium. The plates were incubated in a thermostat for 18–20 h at 37 °C. The bacterial growth was assessed as optical density at 600 nm on a CLARIOstar microplate reader (BMG LABTECH GmbH, Ortenberg, Germany)).
Series [3] can be described thus: Metabolic stability in rat liver microsomes. The note with it: for microsomal CLint at 1 µM / half-life at 1 µM: rat, microsomes; for microsomal CLint at 1 µM: pH 7.4, CLint; for half-life at 1 µM: pH 7.4, t1/2, rat liver microsomes. The protocol: The metabolic stability of a test compound was evaluated based on the rate of disappearance during incubation with rat liver microsomes. […] The natural logarithm of a peak area ratio (compound peak area/internal standard peak area) was plotted against incubation time, and the slope of the line was determined.
A general note: Microsomes from liver hold many membrane-bound enzymes, among them those of drug oxidation.

Series [4] concerns P. aeruginosa GIMC5016:PA1840/36/2015. Nature of the series: Susceptibility of isolate to main antimicrobial agents. Format: cell-based.
The test system of series [5] is A. baumannii GIMC5509:ABT-52Ts19. As to the kind of experiment: MIC of antibiotics alone and with potentiators, clinical isolate. The settings on record: A. baumannii GIMC5509:ABT-52Ts19, no potentiator.
Procedure: as §3, §4, §5
Series [6] has as its system P. aeruginosa GIMC5016:PA1840/36/2015. The description is as above. The note with it: P. aeruginosa GIMC5016:PA1840/36/2015, no potentiator.
Procedure: as §3, §4, §5
For series [7], the target named is S. aureus cystathionine-γ-lyase (bCSE) (Staphylococcus aureus, UniProt A0A0H3K724). Nature of the series: IC50 assay: inhibition of H2S production by purified bCSE, WSP5 fluorescent probe. In kind it is biochemical. The protocol:
(§1) Fluorescence spectrophotometry-based inhibitory activity toward purified bCSE and hCSE was measured in a 96-well nonbinding black plate (Greiner, Kremsmunster, Austria) at 100 μL of the reaction mixture per well. bCSE and hCSE (0.02 μM) were preincubated in a thermoshaker (Biosan, Riga, Latvia) (30 °C, 300 rpm) for 40 min in 50 mM sodium phosphate buffer (pH 8.0), supplemented with 10 μM pyridoxal 5′-phosphate (Sigma-Aldrich, St. Louis, MO, USA), 0.1% of Tween 20 (Sigma-Aldrich, St. Louis, MO, USA), and 1.2 μM Washington State Probe-5 (Cayman Chemical, Ann Arbor, MI, USA) (excitation: 500 nm, emission: 530 nm) at different concentrations of a tested inhibitor. The reaction was initiated by the addition of 100 μM L-cysteine (TCI, Chennai, Tamil Nadu, India) in 50 mM sodium phosphate buffer pH 8.0 to the reaction mixture, and the enzymatic activity was monitored for 12 h using a CLARIOstar Plus instrument (BMG LABTECH GmbH, Ortenberg, Germany). The 100 µM L-cysteine concentration used in the experiments corresponds to the maximal reported intracellular concentration in bacteria. The data were normalized to the positive and negative controls, and IC50 values were obtained by fitting to a four-parameter sigmoidal curve (inhibitor vs. response, variable slope model) in GraphPad Prism 8 software (GraphPad by Dotmatics, Boston, MA, USA). Each experiment was conducted with 2–3 technical replicates. IC50 values were means of at least two independent experiments.
(§2) For the production of S. aureus cystathionine-γ-lyase (bCSE) and of human cystathionine-γ-lyase (hCSE), plasmids pSUMO:saCSE (Addgene # 54336) and pNIC28-Bsa4 (Addgene # 42365) were employed. Cultivation of a competent E. coli cell strain (Thermo Fisher Scientific, Waltham, MA, USA), transformed with a target plasmid, was carried out on a selective solid medium with kanamycin. Bacterial cells harboring the plasmid vector were cultured at 37 °C and 180 rpm until OD600 = 0.65. Then, isopropyl β-D1-thiogalactopyranoside (IPTG) was added to a final concentration of 1 mM. To obtain bCSE, the cells were cultured for 3.5 h at 37 °C; to obtain hCSE, the cells were cultured for 18–20 h at 25 °C. After centrifugation, cells were resuspended in a buffer composed of 50 mM Tris–HCl, at a pH of 8.0, and 300 mM sodium chloride. After that, the cells were lysed by ultrasonication, with a pulse duration of 15 s and an interval between pulses of 15 s. The amplitude of the ultrasonic vibrations was 50% of the maximum. After lysis, samples were centrifuged for 15 min (20,000× g at 4 ℃). The pH of the supernatant obtained after the centrifugation was adjusted to 7.5 by the addition of a 1 M solution of Tris–OH. Then, the test sample was subjected to filtration through a polyethersulfone membrane with a pore diameter of 0.22 μm.

Series [8] concerns the target T1, human cystathionine-γ-lyase (hCSE) (Homo sapiens, UniProt P32929).
T1 construct: His6-TEV (N, cleaved yes); host or cells: E. coli
As to the kind of experiment: IC50 assay: inhibition of H2S production by purified hCSE, WSP5 fluorescent probe. Format: biochemical. The note with it: purified hCSE 0.02 μM, 100 μM L-cysteine, WSP5 probe, mean ± SD; read-out: IC50 biochemical assay hCSE. The method, then: as §1, §2

Series [9] can be described thus: HEK293 cytotoxicity assay (Alamar Blue). The settings on record: human, HEK293 cells, HEK293, 72 h. In kind it is cell-based. The protocol:
The HEK 293 cell line was obtained from the European Collection of Authenticated Cell Cultures (ECACC, cat. # 85120602, Salisbury, UK). The cells were grown in a monolayer culture in Dulbecco’s Modified Eagle’s Medium (DMEM) (PanEco, Moscow, Russia), supplemented with 2 mM L-glutamine, 1% of a penicillin/streptomycin solution (Capricorn Scientific, Ebsdorfergrund, Germany), and 10% of heat inactivated fetal bovine serum (HyClone, Cytiva, Marlborough, MA, USA) in a humidified atmosphere containing 5% of CO2 at 37 °C (Binder, Germany). For the assay, HEK 293 cells were seeded in a 96-well plate (Corning, NY, USA) in 100 μL of the complete culture medium, at a final density of 2 × 10^3 cells/well, and were cultured for 24 h for proper attachment. Subsequently, the medium was removed, and the cells were exposed to a tested inhibitor at different concentrations for 72 h in 100 μL of the fresh complete culture medium. The sensitivity of the cells to the compounds was detected using the vital dye Alamar Blue (Invitrogen, San Diego, CA, USA). The Alamar Blue assay was performed according to the procedure described by O’Brien et al.. After incubation with the tested bCSE inhibitors, 10 μL of the Alamar Blue reagent was added into each well, the cell culture plates were returned to the humidified incubator, and the fluorescence was read after 3 h. The plates were exposed to an excitation light of 545 nm wavelength, and emission at 600 nm was measured on the CLARIOstar Plus (BMG LABTECH GmbH, Ortenberg, Germany). To determine half-maximal cytotoxic concentration (CC50), a four-parameter sigmoidal curve model (GraphPad Prism 8 software) was fitted to the measurement data.
(In general: Resazurin is reduced to fluorescent resorufin, in cell work by metabolically active cells.)

Converted amounts (≈) assume the structure as drawn. Where only a bound is given, the exact number is not on record here.

Sequence of S. aureus cystathionine-γ-lyase (bCSE) (A0A0H3K724 entry or part of it): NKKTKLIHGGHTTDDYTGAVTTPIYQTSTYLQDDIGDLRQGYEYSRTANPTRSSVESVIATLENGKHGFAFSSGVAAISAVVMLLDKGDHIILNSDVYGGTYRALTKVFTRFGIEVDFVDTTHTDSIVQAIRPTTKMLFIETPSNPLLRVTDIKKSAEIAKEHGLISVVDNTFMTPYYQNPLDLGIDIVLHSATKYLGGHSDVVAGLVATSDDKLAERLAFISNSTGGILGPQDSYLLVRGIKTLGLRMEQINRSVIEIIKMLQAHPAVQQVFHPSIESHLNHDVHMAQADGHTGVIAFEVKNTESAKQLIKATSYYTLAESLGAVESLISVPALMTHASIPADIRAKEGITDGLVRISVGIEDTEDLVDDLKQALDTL
T1 sequence (P32929 whole entry): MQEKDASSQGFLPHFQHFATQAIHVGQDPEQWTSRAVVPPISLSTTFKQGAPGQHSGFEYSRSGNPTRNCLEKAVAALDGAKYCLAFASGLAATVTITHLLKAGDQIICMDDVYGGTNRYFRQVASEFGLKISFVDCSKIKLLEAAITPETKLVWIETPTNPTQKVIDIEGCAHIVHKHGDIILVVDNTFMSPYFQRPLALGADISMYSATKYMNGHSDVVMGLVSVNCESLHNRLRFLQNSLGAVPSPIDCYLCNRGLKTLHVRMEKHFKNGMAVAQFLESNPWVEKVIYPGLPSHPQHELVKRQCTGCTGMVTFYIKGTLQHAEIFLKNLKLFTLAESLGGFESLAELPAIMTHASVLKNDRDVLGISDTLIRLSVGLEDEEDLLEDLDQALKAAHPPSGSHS
Procedure for S. aureus ATCC 25923: as §3, §4, §5

For the molecule `CC(=O)Nc1ccc(O)cc1` [Paracetamol, reference compound], in series [1], the logD worked out at 0.29 ± 0.02.

By solubility is commonly meant the concentration that dissolves in the medium under given conditions. The low end stands for a poorly soluble substance, the high end for a readily soluble substance. As to `O=C(O)Cc1ccccc1Nc1c(Cl)cccc1Cl` [Diclofenac sodium], the solubility at 2 h in the series “physchem” was over 100 µM.

Regarding `CC1(C)S[C@@H]2[C@H](NC(=O)[C@H](N)c3ccccc3)C(=O)N2[C@H]1C(=O)O` [amp, ampicillin], the “MIC of antibiotic alone” value with S. aureus ATCC 25923 is 0.3 µg/mL; in series [2], “res”; in series [2] (listed as ampicillin), “resistant”.

By microsomal CLint is commonly meant a measure of how fast metabolising enzymes remove a compound, apart from limits set by blood flow. A higher microsomal CLint goes with faster metabolism. As usually defined, the half-life is the time needed for the level to fall by half in the phase considered. In series [3] (rat liver microsomes, cofactor NADPH, 1 µM), `O=c1ccc2ccc(O)cc2o1` [Umbelliferone] gave a CLint of 8.8 µL/min/mg. The microsomal CLint at 1 µM in series [3] (rat liver microsomes, cofactor NADPH) was found to be 8.81 ± 1 µL/min/mg; in series [3] (rat liver microsomes, cofactor UDPGA), 180 ± 0.7 µL/min/mg. Further, the half-life at 1 µM turned out to be 2.64 ± 0.301 h in series [3] (cofactor NADPH) and 0.1283 ± 0.0005 h in series [3] (cofactor UDPGA).

Turning to `CCn1cc(C(=O)O)c(=O)c2cc(F)c(N3CCNCC3)cc21` [nor, norfloxacin], the “MIC of antibiotic alone” value turned out to be 2.5 µg/mL in the series on S. aureus ATCC 25923 and 10 µg/mL in series [2].

For `C[C@@H](O)[C@H]1C(=O)N2C(C(=O)O)=C(S[C@@H]3CN[C@H](C(=O)N(C)C)C3)[C@H](C)[C@H]12` [Meropenem, meropenem], the “susceptibility of isolate (Sensitive to / Resistant to)” value in series [4] is recorded as “Resistant to”. Further, the “MIC of antibiotic alone” value in [5] was found to be 64 µg/mL; in series [6], 16 µg/mL.

As usually defined, the Solubility is the concentration that dissolves in the medium under given conditions. Read a low Solubility as a poorly soluble substance. Regarding `COC(=O)C1=C(C)NC(C)=C(C(=O)OCCN(C)Cc2ccccc2)C1c1cccc([N+](=O)[O-])c1` (stereo not shown) [Nicardipine], the concentration in solution in “physchem” (solubility at 2 h) came to 5.16 ± 0.23 µM (≈ 2.47 µg/mL). Further, the Solubility in the series “physchem” (2 h, pH 7.4) worked out at 5.2 µM (≈ 2.49 µg/mL).

On to `CO/N=C(\C(=O)N[C@@H]1C(=O)N2C(C(=O)[O-])=C(C[N+]3(C)CCCC3)CS[C@H]12)c1csc(N)n1` [Cefepim, cefepime], for which the “susceptibility of isolate (Sensitive to / Resistant to)” value in [4] is “Resistant to”. For the same molecule, the “MIC of antibiotic alone” value in [5] is over 512 µg/mL; in series [6], 256 µg/mL.

What is called IC50 is the concentration that inhibits the measured activity by half. What is called CC50 is the concentration giving 50% cytotoxicity. Read a low CC50 as harm at low concentration. As to `O=C(O)c1ccc2ccn(Cc3ccc4ccccc4c3)c2c1` [Compound 3b], the IC50 in series [7] (IC50 (uM), bCSE enzymatic IC50, rounded, repeated in Table S14) was 141 µM; in series [7] (IC50 (uM), bCSE enzymatic IC50, rounded, repeated in Table S15) it was 141 µM; in series [7] (IC50 biochemical assay bCSE, purified bCSE 0.02 μM, 100 μM L-cysteine, WSP5 probe, mean ± SD), 148 ± 46.4 µM; in [8], over 500 µM. The same molecule yielded a CC50 at 72 h in series [9] of 528 ± 47.1 µM.

Take `NC[C@H]1O[C@H](O[C@H]2[C@H](O)[C@@H](O[C@H]3O[C@H](CO)[C@@H](O)[C@H](N)[C@H]3O)[C@H](N)C[C@@H]2N)[C@H](O)[C@@H](O)[C@@H]1O` [km, kanamycin]: the “MIC of antibiotic alone” value in the series with S. aureus ATCC 25923 was 12.5 µg/mL; in series [2] it was “res”; in series [2] (listed as kanamycin), “resistant”.
